In patent US12419900B2, “Induction of synthetic lethality with epigenetic therapy” (The Johns Hopkins University, priority 2017, dated 2025):
Like-named read-outs stand apart in the source and are kept apart here.

Columns and labels:
PC-3 cancer cells [1] = experiment: Chemical library screen (JHDL), second stage, dose response matrix with decitabine; type: cell-based
Text: Cells were exposed to each dose of decitabine for four consecutive days prior to addition of each dose of the identified compounds for three consecutive days. […] FIG. 30 is a bar graph illustrating the Bliss Independence score values for the cells of the compounds identified.

PC-3 cancer cells [2] = experiment: Clonogenic survival; type: cell-based, human; details: 72 hours treatment, colonies ten days later, vehicle control 100.00, 12-27 replicates
Protocol: To assay for cancer clonogenic survival, PC-3 cancer cells were seeded into 6-well plates at 5,000 cells/well and allowed to attach overnight. Next, the cells were treated for 72 hours with vehicle control or KCC-08, both with and without isotretinoin, washed three times with phosphate-buffered saline, and then placed back into complete growth medium. Ten days later, colonies founded by surviving cells were detected using crystal violet staining.

PC-3 xenograft tumors = experiment: PC-3 xenograft growth suppression; type: in vivo, Male Fox1-nude mice; details: KCC-08 i.p. 1 then 0.5 mg/kg, isotretinoin oral 30 mg/kg
Protocol: For cancer xenograft growth suppression, one million human PC-3 prostate cancer cells were suspended in Matrigel and inoculated into the flanks of Male Fox1-nude mice provided by Jackson Laboratory (Bar Harbor, ME). When the resultant xenograft tumors were measurable two weeks later, the tumor-bearing mice were treated with KCC-08, given by intraperitoneal infection in saline for 5 of 7 days at 1 mg/kg for week 1 and then 0.5 mg/kg for 5 of 7 days for week 2. Isotretinoin was given by oral gavage in peanut oil at 30 mg/kg for the same 5 of 7 days as the KCC-08 for weeks 1 and 2. For week 3, isotretinoin was given by oral gavage in peanut oil at 30 mg/kg for 5 of 7 days, and KCC-08 was not administered. Tumors were measured 3 times a week for 3 weeks, and the volume was estimated by using the formula 4/3*Π*width*length*depth.

[3] = system: retinoic acid signaling pathway; experiment: pRARE-luciferase reporter of retinoic acid signaling in PC-3 cells; type: cell-based, human; details: 72 hours; for RAR Reporter Activity, Average / RAR Reporter Activity, Trial 1 / RAR Reporter Activity, Trial 2 / RAR Reporter Activity, Trial 3 / RAR Reporter Activity, Trial 4 / RAR Reporter Activity, Trial 5 / RAR Reporter Activity, Trial 6: KCC-08 10 μM, isotretinoin 5 μM, vehicle average 1.00
Protocol: To determine whether MBD2 protein inhibitors triggered retinoic acid signaling pathway activation, KCC-08 was administered to PC-3 human prostate cancer cells transfected with a heterologous reporter plasmid responsive to the presence of retinoic acid signaling (pRARE-luciferase), and the cells were used to assess reactivation of the retinoic acid response signaling pathway. The cancer cells were treated with a vehicle control or KCC-08 (10 μM) both with and without isotretinoin (5 μM) for 72 hours, and then assayed for luciferase reporter production.

[4] = system: DU145 prostate cancer cells; experiment: Alamar blue cell viability and growth, alisertib x decitabine dose matrix; type: cell-based; details: Aurora kinase inhibitor + decitabine
Protocol: DU145 prostate cancer cells and A549 lung cancer cells were treated with varying concentrations (0 nM, 10 nM, 50 nM, and 100 nM) of alisertib in addition to varying concentrations of decitabine (0 nM, 50 nM, 100 nM, and 250 nM). Representative data are shown in FIGS. 2A and 2B, as well as the Tables below. […] In each panel, a dose response of each drug alone and in combination was used in Alamar blue cell viability assays. […] Formal synergy analyses were performed using the Bliss independence score (where values greater than zero indicate greater than additive effect). […] The graph of FIG. 2A is a growth curve of the DU145 prostate cancer cells for the agents alone (decitabine and alisertib separately), a vehicle control, and the agents in combination (decitabine and alisertib together). […] Likewise, the graph of FIG. 2B is a growth curve of the A549 lung cancer cells for the agents alone (decitabine and alisertib separately), a vehicle control, and the agents in combination (decitabine and alisertib together). […] The synergy analysis of the combination of decitabine and alisertib was evaluated in a series of 18 cancer cell lines (9 prostate, 1 ovarian, 1 lung, 2 colon, 2 central nervous system, and 3 breast cancer cell lines) and 2 non-cancer cell models.

[5] = PC-3, decitabine 0-10 μM four days, then compound 0-10 μM three days

## CC[C@@]1(O)C[C@H](O[C@H]2C[C@H](N(C)C)[C@H](O[C@H]3C[C@H](O)[C@H](O[C@H]4CCC(=O)[C@H](C)O4)[C@H](C)O3)[C@H](C)O2)c2c(cc3c(c2O)C(=O)c2c(O)cccc2C3=O)[C@H]1C(=O)OC [aclarubicin]
PC-3 cancer cells [1]
  growth inhibition when combined with decitabine (Bliss independence score sum across all dose combinations greater than zero): synergistic growth inhibition

## Nc1ccc(-c2cccc3c(=O)cc(N4CCOCC4)oc23)cc1 [PI828]
PC-3 cancer cells [1]; [5]
  growth inhibition when combined with decitabine (Bliss independence score sum across all dose combinations greater than zero): synergistic growth inhibition

## CC(C)[C@@H]1NC(=O)[C@H](C)OC(=O)[C@@H](C(C)C)NC(=O)[C@@H](C(C)C)OC(=O)[C@H](C(C)C)NC(=O)[C@H](C)OC(=O)[C@@H](C(C)C)NC(=O)[C@@H](C(C)C)OC(=O)[C@H](C(C)C)NC(=O)[C@H](C)OC(=O)[C@@H](C(C)C)NC(=O)[C@@H](C(C)C)OC1=O [valinomycin]
PC-3 cancer cells [1]; [5]
  growth inhibition when combined with decitabine (Bliss independence score sum across all dose combinations greater than zero): synergistic growth inhibition

## Cn1cc(C2=C(c3cn(CCCSC(=N)N)c4ccccc34)C(=O)NC2=O)c2ccccc21 [RO31-8220]
PC-3 cancer cells [1]
  growth inhibition when combined with decitabine (Bliss independence score sum across all dose combinations greater than zero): synergistic growth inhibition

## Nc1ccn([C@@H]2O[C@H](CO)[C@@H](O)C2(F)F)c(=O)n1 [gemcitabine]
PC-3 cancer cells [1]; [5]
  growth inhibition when combined with decitabine (Bliss independence score sum across all dose combinations greater than zero): synergistic growth inhibition

## N.N.O=C([O-])C1(C(=O)[O-])CCC1.[Pt+2] [carboplatin]
PC-3 cancer cells [1]; [5]
  growth inhibition when combined with decitabine (Bliss independence score sum across all dose combinations greater than zero): synergistic growth inhibition

## COc1c(C)c2c(c(O)c1C/C=C(\C)CCC(=O)O)C(=O)OC2 [mycophenolic acid]
PC-3 cancer cells [1]; [5]
  growth inhibition when combined with decitabine (Bliss independence score sum across all dose combinations greater than zero): synergistic growth inhibition

## Nc1ccn([C@@H]2O[C@H](CO)[C@@H](O)[C@@H]2O)c(=O)n1 [cytarabine]
PC-3 cancer cells [1]; [5]
  growth inhibition when combined with decitabine (Bliss independence score sum across all dose combinations greater than zero): synergistic growth inhibition

## COc1cc2ncn(-c3cc(OCc4ccccc4C(F)(F)F)c(C(N)=O)s3)c2cc1OC [GW843682]
PC-3 cancer cells [1]; [5]
  growth inhibition when combined with decitabine (Bliss independence score sum across all dose combinations greater than zero): synergistic growth inhibition

## CCC1=C[C@@H]2CN(C1)Cc1c([nH]c3ccccc13)[C@@](C(=O)OC)(c1cc3c(cc1OC)N(C)[C@H]1[C@@](O)(C(=O)OC)[C@H](OC(C)=O)[C@]4(CC)C=CCN5CC[C@]31[C@@H]54)C2 [vinorelbine]
PC-3 cancer cells [1]; [5]
  growth inhibition when combined with decitabine (Bliss independence score sum across all dose combinations greater than zero): synergistic growth inhibition

## COc1cc2c(c(OC)c1OC)-c1ccc(OC)c(=O)cc1[C@@H](NC(C)=O)CC2 [colchicine]
PC-3 cancer cells [1]
  growth inhibition when combined with decitabine (Bliss independence score sum across all dose combinations greater than zero): synergistic growth inhibition

## CC[C@@]1(O)C(=O)OCc2c1cc1n(c2=O)Cc2cc3c(CN(C)C)c(O)ccc3nc2-1 [topotecan]
PC-3 cancer cells [1]; [5]
  growth inhibition when combined with decitabine (Bliss independence score sum across all dose combinations greater than zero): synergistic growth inhibition

## CCCCCCCCCCCCCCCCn1cc[n+](Cc2ccccc2)c1C.[I-] [NH125]
PC-3 cancer cells [1]
  growth inhibition when combined with decitabine (Bliss independence score sum across all dose combinations greater than zero): synergistic growth inhibition

## CC(=O)O[C@@]12CO[C@@H]1C[C@H](O)[C@@]1(C)C(=O)[C@H](O)C3=C(C)[C@@H](OC(=O)[C@H](O)[C@@H](NC(=O)OC(C)(C)C)c4ccccc4)C[C@@](O)([C@@H](OC(=O)c4ccccc4)[C@H]21)C3(C)C [docetaxel]
PC-3 cancer cells [1]; [5]
  growth inhibition when combined with decitabine (Bliss independence score sum across all dose combinations greater than zero): synergistic growth inhibition

## CO[C@H]1C[C@H](O[C@H]2CC[C@]3(C)[C@H]4CC[C@]5(C)[C@@H](C6=CC(=O)OC6)CC[C@]5(O)[C@@H]4CC[C@]3(O)C2)O[C@H](C)[C@H]1O [periplocymarin]
PC-3 cancer cells [1]
  growth inhibition when combined with decitabine (Bliss independence score sum across all dose combinations greater than zero): synergistic growth inhibition

## O=C1NC(=O)c2c1c1c3ccccc3n3c1c1c2c2ccccc2n1C1CCC3O1 [SB218078]
PC-3 cancer cells [1]; [5]
  growth inhibition when combined with decitabine (Bliss independence score sum across all dose combinations greater than zero): synergistic growth inhibition

## Cn1c2ccccc2n2cc(-c3ccc([N+](=O)[O-])cc3)nc12 [KCC-08]
PC-3 cancer cells [2]
  Clonogenic Survival Relative to Control, Average: 96.86
PC-3 xenograft tumors; Day 1
  Percent average xenograft tumor volume relative to baseline, Average: 100%
PC-3 xenograft tumors; Day 4
  Percent average xenograft tumor volume relative to baseline, Average: 151.16%
PC-3 xenograft tumors; Day 8
  Percent average xenograft tumor volume relative to baseline, Average: 223.22%
PC-3 xenograft tumors; Day 11
  Percent average xenograft tumor volume relative to baseline, Average: 250.94%
PC-3 xenograft tumors; Day 15
  Percent average xenograft tumor volume relative to baseline, Average: 338.37%
PC-3 xenograft tumors; Day 18
  Percent average xenograft tumor volume relative to baseline, Average: 406.04%
PC-3 xenograft tumors; Day 22
  Percent average xenograft tumor volume relative to baseline, Average: 452.09%
[3]; KCC-08 10 μM with or without isotretinoin 5 μM
  luciferase activity / retinoic acid signaling pathway activation: enhanced
[3]
  RAR Reporter Activity, Average: 2.24
  RAR Reporter Activity, Trial 1: 2.08
  RAR Reporter Activity, Trial 2: 2.31
  RAR Reporter Activity, Trial 3: 1.96
  RAR Reporter Activity, Trial 4: 2.46
  RAR Reporter Activity, Trial 5: 2.36
  RAR Reporter Activity, Trial 6: 2.28

## COc1ccc(C[C@H]2NC[C@H](O)[C@H]2OC(C)=O)cc1 [anisomycin]
PC-3 cancer cells [1]; [5]
  growth inhibition when combined with decitabine (Bliss independence score sum across all dose combinations greater than zero): synergistic growth inhibition

## Cc1csc(-c2nnc(Nc3ccc(Oc4ncccc4-c4ccnc(N)n4)cc3)c3ccccc23)c1 [AMG-900]
[4]
  growth inhibition of DU-145 cells in combination with decitabine: synergistic growth inhibition

## Cc1ccc2c(=O)c3ccccc3n(CCCN)c2c1C.O=C(O)C(=O)O [ER27319]
PC-3 cancer cells [1]; [5]
  growth inhibition when combined with decitabine (Bliss independence score sum across all dose combinations greater than zero): synergistic growth inhibition

## CC1=C(/C=C/C(C)=C/C=C/C(C)=C\C(=O)O)C(C)(C)CCC1 [Isotretinoin, isotretinoin]
PC-3 cancer cells [2]
  Clonogenic Survival Relative to Control, Average: 96.62
PC-3 xenograft tumors; Day 1
  Percent average xenograft tumor volume relative to baseline, Average: 100%
PC-3 xenograft tumors; Day 4
  Percent average xenograft tumor volume relative to baseline, Average: 161.09%
PC-3 xenograft tumors; Day 8
  Percent average xenograft tumor volume relative to baseline, Average: 238.81%
PC-3 xenograft tumors; Day 11
  Percent average xenograft tumor volume relative to baseline, Average: 315.81%
PC-3 xenograft tumors; Day 15
  Percent average xenograft tumor volume relative to baseline, Average: 394.27%
PC-3 xenograft tumors; Day 18
  Percent average xenograft tumor volume relative to baseline, Average: 488.75%
PC-3 xenograft tumors; Day 22
  Percent average xenograft tumor volume relative to baseline, Average: 522.19%
[3]
  RAR Reporter Activity, Average: 1.57
  RAR Reporter Activity, Trial 1: 1.66
  RAR Reporter Activity, Trial 2: 1.77
  RAR Reporter Activity, Trial 3: 1.62
  RAR Reporter Activity, Trial 4: 1.42
  RAR Reporter Activity, Trial 5: 1.47
  RAR Reporter Activity, Trial 6: 1.46

## O=C(O)c1ccc(Nc2ncc3c(n2)-c2ccc(Cl)cc2C(c2c(F)cccc2F)=NC3)cc1 [MLN8054]
[4]
  growth inhibition of DU-145 cells in combination with decitabine: synergistic growth inhibition

## C[C@@H]1O[C@@H](O[C@H]2C[C@@H](O)[C@]3(CO)[C@H]4[C@H](O)C[C@]5(C)[C@@H](C6=CC(=O)OC6)CC[C@]5(O)[C@@H]4CC[C@]3(O)C2)[C@H](O)[C@H](O)[C@H]1O [ouabain]
PC-3 cancer cells [1]; [5]
  growth inhibition when combined with decitabine (Bliss independence score sum across all dose combinations greater than zero): synergistic growth inhibition

## C[C@]12CC[C@H]3[C@@H](CC[C@]4(O)C[C@@H](O)CC[C@]34C=O)[C@@]1(O)CC[C@@H]2C1=CC(=O)OC1 [strophanthidin]
PC-3 cancer cells [1]
  growth inhibition when combined with decitabine (Bliss independence score sum across all dose combinations greater than zero): synergistic growth inhibition
